Source: the NIST ThermoML archive (doi:10.1016/j.jct.2006.01.007)

Test: xn = mol fraction of the nth substance listed
Settings: 101 kPa, Liquid; for speed of sound: Sing-around technique in a fixed-path interferometer

CC(C)(C)O [2-methylpropan-2-ol] + O
x2 = 0.9615
Settings | mass density [kg/m3] | speed of sound [m/s]
288.15 K | 980.2 | 1613.7
293.15 K | 978.4 | 1612.4
298.15 K | 976.6 | 1610
303.15 K | 973.6 | 1606.5
308.15 K | 971.5 | 1602.5
313.15 K | 968.8 | 1597

C[S+](C)[O-] [dimethyl sulfoxide] + O
x1 = 0.0385
Settings | mass density [kg/m3] | speed of sound [m/s]
288.15 K | 1019.8 | 1555.2
293.15 K | 1018.1 | 1562.5
298.15 K | 1016.2 | 1568.5
303.15 K | 1014.4 | 1573.4
308.15 K | 1012.3 | 1577
313.15 K | 1010.2 | 1579.4
